This note sets out measurements from PubChem BioAssay (NCI).

Among the test systems are A549 NSCLC; HT29 colon; MDA-MB-435; NCI-H23 lung; RPMI-8226 leukemia; SF-295 CNS; SN12C renal; SR leukemia; TK-10 renal; SNB-75 CNS.
Test in all cases: NCI anticancer screen, dose series, 48 h

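Tested at 5 concentrations; 48 h exposure; 96-well plates; endpoints linearly interpolated, else capped at highest concentration. The concentration for 50% growth inhibition is given as GI50. TGI denotes the concentration required for complete inhibition of growth.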

Regarding `CC[C@@]12CCCN3CC[C@]4(c5cccc(OC)c5N(C(C)=O)[C@@H]4CC1)[C@H]32`, the TGI in the assay on A549 NSCLC is above 100 µM; in the assay on HT29 colon, 44 µM; with MDA-MB-435, above 100 µM; in the assay on NCI-H23 lung, above 100 µM; in the assay on RPMI-8226 leukemia, above 100 µM; in the assay with SF-295 CNS it was above 100 µM. Besides, the TGI with SN12C renal was above 100 µM; with SR leukemia, 55.9 µM; with TK-10 renal, above 100 µM.

In the case of `Cc1cnc(NC(=O)C(Cc2ccccc2)NC(=O)c2ccccc2)s1` (stereo not given), the GI50 with A549 NSCLC was 3.32 µM; in the assay on HT29 colon it was 26 µM; in the assay with MDA-MB-435, 3.02 µM; with NCI-H23 lung, 3.83 µM; in the assay on RPMI-8226 leukemia, 2.7 µM; with SN12C renal it was 3.05 µM. Further, the GI50 in the assay with SNB-75 CNS was 6.53 µM; in the assay with SR leukemia, 2.78 µM; in the assay with TK-10 renal it was 10.2 µM. Moreover, the TGI in the assay on A549 NSCLC is 15.8 µM; in the assay on HT29 colon, above 100 µM; in the assay on MDA-MB-435, 15.6 µM; with NCI-H23 lung it was 23.8 µM; in the assay on RPMI-8226 leukemia it was 9.04 µM; in the assay on SN12C renal it was 17.5 µM. Moreover, the TGI with SNB-75 CNS was 27.7 µM; in the assay with SR leukemia, 26.6 µM; in the assay on TK-10 renal it was 30.7 µM.

For `CC1=C(C(=O)Nc2ccc(F)c(Cl)c2)C(c2ccc(Cl)cc2)NC(=O)N1` (stereo not given), the GI50 in the assay on A549 NSCLC was 20.1 µM; in the assay with HT29 colon, 14.3 µM; with MDA-MB-435, 22.8 µM; in the assay on NCI-H23 lung, 17.4 µM; in the assay with RPMI-8226 leukemia it was 13.6 µM; in the assay on SF-295 CNS it was 32.5 µM. Moreover, the GI50 was 17.8 µM with SN12C renal, 5.28 µM with SNB-75 CNS and 7.4 µM in the assay with TK-10 renal. In addition, the TGI in the assay on A549 NSCLC is 46.3 µM; in the assay on HT29 colon it was 27.8 µM; in the assay on MDA-MB-435, 56.4 µM; in the assay with NCI-H23 lung, 33.8 µM; in the assay on RPMI-8226 leukemia, 36.3 µM; in the assay with SF-295 CNS, above 100 µM. Moreover, the values for the TGI with SN12C renal, in the assay with SNB-75 CNS and in the assay on TK-10 renal were 32.2 µM, 30.5 µM and 25.4 µM, respectively.

For `COc1ccc2c(c1)C(=O)/C(=C/c1ccc(OCC(=O)Nc3nccs3)cc1)O2`, the GI50 was 1.76 µM with A549 NSCLC; 5.31 µM with HT29 colon; 10.7 µM in the assay with MDA-MB-435; 0.711 µM with NCI-H23 lung; 0.439 µM in the assay with RPMI-8226 leukemia; 2.51 µM with SN12C renal. In addition, the GI50 is 0.629 µM in the assay with SNB-75 CNS, 0.27 µM in the assay with SR leukemia and 3.39 µM in the assay with TK-10 renal. Further, the TGI came to 16 µM with A549 NSCLC; 29.2 µM in the assay with HT29 colon; 46.8 µM in the assay on MDA-MB-435; 19.9 µM in the assay with NCI-H23 lung; 4.56 µM in the assay on RPMI-8226 leukemia; 18.9 µM with SN12C renal. In addition, the TGI in the assay with SNB-75 CNS came out at 9.38 µM; with SR leukemia, 1.15 µM; with TK-10 renal it was 17.8 µM.

In the case of `NC(CSC(c1ccccc1)(c1ccccc1)c1ccc2c(c1)OCO2)C(=O)O` (stereo not given), the GI50 in the assay with A549 NSCLC is 0.635 µM; in the assay on HT29 colon, 1.81 µM; in the assay on NCI-H23 lung, 0.545 µM; with RPMI-8226 leukemia, 0.306 µM; with SF-295 CNS, 0.352 µM; with SN12C renal it was 0.633 µM. The GI50 with SNB-75 CNS is 0.283 µM; in the assay on SR leukemia it was 0.285 µM; in the assay with TK-10 renal, 10.6 µM. Further, the TGI in the assay on A549 NSCLC was above 100 µM; in the assay with HT29 colon it was above 44.5 µM; in the assay on NCI-H23 lung it was 32 µM; in the assay on RPMI-8226 leukemia, 3.77 µM; with SF-295 CNS it was above 48.4 µM; in the assay with SN12C renal it was above 100 µM. In addition, the TGI with SNB-75 CNS is 7.06 µM; in the assay on SR leukemia, 0.868 µM; with TK-10 renal it was above 100 µM.

For the compound `O=C1NC2(CCCCC2)C2CCCCC(O)C12` (stereo not given), the TGI with A549 NSCLC, with HT29 colon, in the assay on NCI-H23 lung, in the assay with RPMI-8226 leukemia, in the assay with SF-295 CNS and in the assay with SN12C renal was above 100 µM in each case. Further, the TGI with SNB-75 CNS, in the assay on SR leukemia and in the assay on TK-10 renal was above 100 µM each time.

Consider `O=C(/C=C/c1ccccc1Cl)c1ccc(Cl)c(Cl)c1`, for which the TGI is 40.8 µM in the assay with A549 NSCLC; 36 µM in the assay on HT29 colon; 36.4 µM in the assay with NCI-H23 lung; above 100 µM in the assay on RPMI-8226 leukemia; 31.3 µM with SF-295 CNS; above 100 µM in the assay on SN12C renal. For the same compound, the figures for the TGI with SNB-75 CNS, in the assay with SR leukemia and in the assay on TK-10 renal were 27.3 µM, 54.8 µM and 38.8 µM, respectively.

Regarding `O=[S@@]1Nc2ccc(Br)cc2S1`, the TGI in the assay with A549 NSCLC, in the assay on HT29 colon, in the assay with NCI-H23 lung, in the assay with RPMI-8226 leukemia, in the assay on SF-295 CNS and in the assay with SN12C renal was above 100 µM each time. Further, the TGI in the assay with SNB-75 CNS, in the assay on SR leukemia and with TK-10 renal was above 100 µM each time.

Consider `COC(=O)Nc1nc2ccc(S(=O)c3ccccc3)cc2[nH]1` (stereo not given), for which the GI50 in the assay with A549 NSCLC was 5.48 µM; in the assay on HT29 colon, 3.46 µM; in the assay with MDA-MB-435 it was 1.26 µM; in the assay on NCI-H23 lung, 8.79 µM; with RPMI-8226 leukemia it was 5.11 µM; with SN12C renal, 6.98 µM. Further, the GI50 in the assay on SNB-75 CNS is 1.75 µM; with SR leukemia, 2.25 µM; in the assay with TK-10 renal it was 12.4 µM. For the same compound, the TGI with A549 NSCLC was above 100 µM; with HT29 colon, 54.1 µM; in the assay on MDA-MB-435, 3.94 µM; in the assay with NCI-H23 lung, above 100 µM; with RPMI-8226 leukemia it was above 100 µM; in the assay on SN12C renal it was above 100 µM. In addition, the TGI with SNB-75 CNS was 5.75 µM; in the assay on SR leukemia, above 100 µM; in the assay with TK-10 renal, above 100 µM.

In the case of `CC1CN1P1(N2CC2C)=NP(N2CC2C)(N2CC2C)=NP(N2CC2C)(N2CC2C)=N1` (stereo not given), the TGI in the assay with A549 NSCLC, with HT29 colon, in the assay with NCI-H23 lung, in the assay on RPMI-8226 leukemia, with SF-295 CNS and with SN12C renal was above 50 µM in each case. For the same compound, the TGI in the assay on SNB-75 CNS, in the assay with SR leukemia and in the assay with TK-10 renal was above 50 µM throughout.

Turning to `CSc1ccccc1C#C/C=C\C#Cc1ccccc1N1CCCC1=O`, the GI50 is above 11 µM in the assay on A549 NSCLC; above 10.4 µM in the assay with HT29 colon; above 12.7 µM in the assay with NCI-H23 lung; 3.34 µM with RPMI-8226 leukemia; above 50 µM in the assay with SF-295 CNS; above 26.2 µM in the assay on SN12C renal. For the same compound, the GI50 was above 10.8 µM with SNB-75 CNS and above 24.6 µM in the assay on TK-10 renal. In addition, the TGI is above 50 µM in the assay on A549 NSCLC; above 50 µM in the assay with HT29 colon; above 13.9 µM in the assay on MDA-MB-435; above 50 µM in the assay with NCI-H23 lung; above 50 µM with SF-295 CNS; above 50 µM in the assay with SN12C renal. In addition, the TGI with SNB-75 CNS and in the assay on TK-10 renal was above 50 µM throughout.

Consider `Clc1cccc(Cc2cn3cc(-c4ccccc4)nc3s2)c1Cl`, for which the GI50 with A549 NSCLC is 27.2 µM; in the assay with HT29 colon it was above 100 µM; in the assay with MDA-MB-435, 3.59 µM; with NCI-H23 lung, 60.7 µM; in the assay with RPMI-8226 leukemia it was above 100 µM; in the assay with SN12C renal, above 100 µM. Moreover, the GI50 in the assay with TK-10 renal was 26.1 µM. Further, the TGI in the assay with A549 NSCLC, in the assay with HT29 colon, in the assay on MDA-MB-435, in the assay with NCI-H23 lung, with RPMI-8226 leukemia and in the assay with SN12C renal was above 100 µM in each case. The same compound displayed a TGI with TK-10 renal above 100 µM.

With `O=C(N/C(=C\c1cc(Cl)ccc1Cl)c1nc2[nH]c(=S)[nH]c(=O)c2[nH]1)c1ccccc1`, the TGI in the assay with A549 NSCLC was above 100 µM; with HT29 colon it was 39.6 µM; in the assay with NCI-H23 lung, above 65.8 µM; in the assay on RPMI-8226 leukemia, 42.7 µM; with SF-295 CNS it was above 100 µM; in the assay with SN12C renal, above 66.6 µM. The TGI in the assay with SNB-75 CNS, with SR leukemia and in the assay with TK-10 renal was above 100 µM in each case.

`CSCCCN(CCCSC)CCCSC`: the TGI with A549 NSCLC, with HT29 colon, in the assay on MDA-MB-435, in the assay on NCI-H23 lung, in the assay with SF-295 CNS and in the assay on SN12C renal was above 100 µM each time. Besides, the TGI was above 100 µM in the assay on SNB-75 CNS and 58.8 µM with SR leukemia.

As for `COc1cccc(NC(=O)CC(=O)n2nc(C)c(N=Nc3ccccc3)c2C)c1`, the TGI in the assay on A549 NSCLC, in the assay with HT29 colon, in the assay on NCI-H23 lung, in the assay on RPMI-8226 leukemia, in the assay with SF-295 CNS and with SN12C renal was above 100 µM in each case. Further, the TGI in the assay on SNB-75 CNS, with SR leukemia and in the assay with TK-10 renal was above 100 µM in each case.

In the case of `COc1c2ccoc2c(/C=C/C=O)c2oc(-c3ccccc3)cc(=O)c12`, the GI50 was 21.5 µM with A549 NSCLC; 25.1 µM in the assay with HT29 colon; 4.83 µM with MDA-MB-435; 2.44 µM in the assay on NCI-H23 lung; 2.24 µM in the assay with RPMI-8226 leukemia; 13.6 µM with SF-295 CNS. The GI50 in the assay on SNB-75 CNS is 8.3 µM. The TGI was above 100 µM in the assay with A549 NSCLC; above 100 µM in the assay on HT29 colon; above 100 µM with MDA-MB-435; 8.08 µM with NCI-H23 lung; 5.81 µM in the assay with RPMI-8226 leukemia; 97.9 µM in the assay on SF-295 CNS. Also, the TGI in the assay with SNB-75 CNS was determined as 67.1 µM.
